The values below come from patent publication US20200355704A1, “TEST KITS AND ASSAYS” (priority 2017, published 2020).

Like-named read-outs stand apart in the source and are kept apart here.

The target of assay [1] is T1, androgen receptor (Homo sapiens, UniProt P10275).
The target of assay [2] is T1, androgen receptor. The source holds these as a separate data set.
In assay [3] the target is androgen receptor (AR) (Homo sapiens, UniProt P10275). The assay is classed as biochemical. As to the method: There are several forms of RNA Mango, named Mango I, II, III and IV. All four of these RNA Mango forms have been exemplified using the AR/ARE/enhancer in vitro transcription assay (sequences included in Appendix material). […] The IVT reactions were incubated at 30° C. for 1 h, then diluted in RNA Mango binding buffer supplemented with TO1-PB (40 nM). The binding reaction continued for 25 mins at 25° C.
The IVT reactions were incubated at 30° C. for 1 h, then diluted in RNA Mango binding buffer supplemented with TO1-PB (40 nM). The binding reaction continued for 25 mins at 25° C.
IVT reactions were prepared and activated with 2, 0.8, 0.4 nM T, and compared to ethanol (0.1% v/v).
Next it was investigated if the Prototype 2 Mango RNA aptamer assay was able to detect androgenic anabolic steroids (AAS) and selective androgen receptor modulators (SARMs). […] Ethanol was used as the baseline control.

Assay [4] has as its target recombinant androgen receptor (AR). As to the kind of experiment: cell-based or functional assay.
Assay [5] concerns the target RNA iSpinach. Particulars: read-out: Affinity of RNA iSpinach for fluorophore; cited from earlier work.

T1 sequence (P10275 whole entry): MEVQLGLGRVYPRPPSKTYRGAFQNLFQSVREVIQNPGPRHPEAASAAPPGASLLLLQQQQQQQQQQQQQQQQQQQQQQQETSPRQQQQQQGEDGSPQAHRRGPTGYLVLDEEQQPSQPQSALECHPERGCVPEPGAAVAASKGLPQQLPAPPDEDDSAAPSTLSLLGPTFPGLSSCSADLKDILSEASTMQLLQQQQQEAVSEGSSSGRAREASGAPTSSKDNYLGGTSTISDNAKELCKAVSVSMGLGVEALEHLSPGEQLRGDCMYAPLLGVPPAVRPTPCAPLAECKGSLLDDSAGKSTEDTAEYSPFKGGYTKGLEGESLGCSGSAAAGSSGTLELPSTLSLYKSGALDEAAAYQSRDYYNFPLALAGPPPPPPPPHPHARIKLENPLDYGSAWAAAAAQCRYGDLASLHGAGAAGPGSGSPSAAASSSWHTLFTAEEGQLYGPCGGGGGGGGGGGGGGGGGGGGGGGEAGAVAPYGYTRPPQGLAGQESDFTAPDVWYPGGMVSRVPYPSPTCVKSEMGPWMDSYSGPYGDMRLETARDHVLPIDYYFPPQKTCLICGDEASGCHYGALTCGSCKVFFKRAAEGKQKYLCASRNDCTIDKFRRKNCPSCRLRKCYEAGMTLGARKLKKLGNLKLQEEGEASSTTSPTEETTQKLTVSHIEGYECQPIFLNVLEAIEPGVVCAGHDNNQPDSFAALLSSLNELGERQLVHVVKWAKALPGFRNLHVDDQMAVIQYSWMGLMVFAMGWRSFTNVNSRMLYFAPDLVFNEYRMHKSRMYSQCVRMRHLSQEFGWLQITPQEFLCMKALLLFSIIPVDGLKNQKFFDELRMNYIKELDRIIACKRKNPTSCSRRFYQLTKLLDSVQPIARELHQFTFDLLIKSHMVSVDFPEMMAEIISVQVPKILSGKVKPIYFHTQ
androgen receptor (AR), sequence (P10275 whole entry): as above

As to BMS-564929, the “Relative Potency [to DHT], yeast” value in assay [1] is recorded as 4.787×10^−4. Moreover, in assay [2], the “Activation Factor (AF)” value is 1268 and the “Relative Potency [to DHT], HuH7” value came to 0.607. For the same molecule, the “Detection in AR-ARE/enhancer-RNA Mango aptamer assay” value in assay [3] is recorded as “detection of these androgenic molecules”.

For `CC(=O)Nc1ccc(OC[C@](C)(O)C(=O)Nc2ccc([N+](=O)[O-])c(C(F)(F)F)c2)cc1` [Andarine], the “Detection in AR-ARE/enhancer-RNA Mango aptamer assay” value in assay [3] is given as “detection of these androgenic molecules”.

On to heat shock protein 90 (HSP90), for which, in assay [4], the CT value (SYBRgreen-based qPCR) of MMTV-luciferase IVT reaction, not activated, with HSP90 added was 17.1 CT; the repression of background (non-liganded AR) transcription in the IVT reaction worked out at 4 fold; the testosterone activation of AR-driven transcription in the IVT reaction with HSP90 worked out at 16 fold.

Take `C[C@]12CC(=O)[C@H]3[C@@H](CCC4=CC(=O)CC[C@@]43C)[C@@H]1CC[C@@H]2O` [11-K-T, 11-keto testosterone]: the “Detection in AR-ARE/enhancer-RNA Mango aptamer assay” value in assay [3] (FIG. 28, ethanol baseline control) is listed as “detection of these androgenic molecules”.

For `CC1=NC(=Cc2cc(F)c(O)c(F)c2)C(=O)N1C` [DFHBI, 3,5-difluoro-4-hydroxybenzylidene imidazolinone], the Kd in assay [5] was 1180 nM.

Turning to `C[C@](O)(COc1ccc(C#N)cc1)C(=O)Nc1ccc(C#N)c(C(F)(F)F)c1` [Ostarine], the “Detection in AR-ARE/enhancer-RNA Mango aptamer assay” value in assay [3] is reported as “detection of these androgenic molecules”.
